According to US11739098B2 (BRISTOL-MYERS SQUIBB COMPANY, priority 2017, dated 2023):

Assays:
Format in all cases: cell-based
human TLR9 = biological target: T1, human TLR9 (Homo sapiens, UniProt Q9NR96); assay: TLR9 inhibition reporter assay (HEK-Blue cells, SEAP reporter, ODN2006 stimulation); details: HEK-Blue cells overexpressing human TLR9, SEAP reporter, ODN2006 5 nM
T1 construct: host or cells: HEK-Blue cells (HEK293-derived reporter line)
T1 sequence (Q9NR96 26-1032): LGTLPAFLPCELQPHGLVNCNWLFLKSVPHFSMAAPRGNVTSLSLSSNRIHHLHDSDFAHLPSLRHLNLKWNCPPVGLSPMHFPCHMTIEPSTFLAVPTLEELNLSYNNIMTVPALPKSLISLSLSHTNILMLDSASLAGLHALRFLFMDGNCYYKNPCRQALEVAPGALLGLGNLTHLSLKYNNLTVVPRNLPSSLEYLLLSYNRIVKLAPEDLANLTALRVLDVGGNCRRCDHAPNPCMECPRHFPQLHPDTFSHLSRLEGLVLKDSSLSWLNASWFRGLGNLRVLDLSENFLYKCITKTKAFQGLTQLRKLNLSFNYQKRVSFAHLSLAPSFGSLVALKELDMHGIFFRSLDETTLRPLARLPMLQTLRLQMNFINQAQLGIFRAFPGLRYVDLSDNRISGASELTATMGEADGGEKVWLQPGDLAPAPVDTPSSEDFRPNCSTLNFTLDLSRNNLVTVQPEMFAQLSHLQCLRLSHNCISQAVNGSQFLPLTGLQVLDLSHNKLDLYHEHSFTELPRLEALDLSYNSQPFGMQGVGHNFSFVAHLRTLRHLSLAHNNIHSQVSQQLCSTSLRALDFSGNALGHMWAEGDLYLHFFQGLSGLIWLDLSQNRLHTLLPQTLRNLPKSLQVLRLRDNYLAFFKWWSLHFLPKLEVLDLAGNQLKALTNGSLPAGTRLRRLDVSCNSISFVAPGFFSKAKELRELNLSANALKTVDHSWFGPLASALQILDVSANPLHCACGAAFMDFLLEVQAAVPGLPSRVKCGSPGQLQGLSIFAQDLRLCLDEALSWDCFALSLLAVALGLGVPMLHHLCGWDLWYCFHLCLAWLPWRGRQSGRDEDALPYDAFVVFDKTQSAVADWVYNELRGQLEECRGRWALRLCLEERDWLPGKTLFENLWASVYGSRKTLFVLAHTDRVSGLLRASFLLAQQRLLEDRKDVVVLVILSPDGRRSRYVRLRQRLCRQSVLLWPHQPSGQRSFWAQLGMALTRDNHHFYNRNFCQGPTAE
Procedure, shortened: (§1)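 HEK-Blue cells overexpressing human TLR7, TLR8 or TLR9 (NF-κB/AP-1-driven SEAP) pre-treated 30 min at room temperature with compound (0.05 nM–50 μM), then stimulated with gardiquimod 7.5 μM (TLR7), R848 15.9 μM (TLR8) or ODN2006 5 nM (TLR9). SEAP read colorimetrically after 22 h at 37 °C; % inhibition calculated.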

human TLR8 = biological target: T2, human TLR8 (Homo sapiens, UniProt Q9NR97); assay: TLR8 inhibition reporter assay (HEK-Blue cells, SEAP reporter, R848 stimulation); details: HEK-Blue cells overexpressing human TLR8, SEAP reporter, R848 15.9 μM
T2 construct: host or cells: HEK-Blue cells (HEK293-derived reporter line)
T2 sequence (Q9NR97 27-1041): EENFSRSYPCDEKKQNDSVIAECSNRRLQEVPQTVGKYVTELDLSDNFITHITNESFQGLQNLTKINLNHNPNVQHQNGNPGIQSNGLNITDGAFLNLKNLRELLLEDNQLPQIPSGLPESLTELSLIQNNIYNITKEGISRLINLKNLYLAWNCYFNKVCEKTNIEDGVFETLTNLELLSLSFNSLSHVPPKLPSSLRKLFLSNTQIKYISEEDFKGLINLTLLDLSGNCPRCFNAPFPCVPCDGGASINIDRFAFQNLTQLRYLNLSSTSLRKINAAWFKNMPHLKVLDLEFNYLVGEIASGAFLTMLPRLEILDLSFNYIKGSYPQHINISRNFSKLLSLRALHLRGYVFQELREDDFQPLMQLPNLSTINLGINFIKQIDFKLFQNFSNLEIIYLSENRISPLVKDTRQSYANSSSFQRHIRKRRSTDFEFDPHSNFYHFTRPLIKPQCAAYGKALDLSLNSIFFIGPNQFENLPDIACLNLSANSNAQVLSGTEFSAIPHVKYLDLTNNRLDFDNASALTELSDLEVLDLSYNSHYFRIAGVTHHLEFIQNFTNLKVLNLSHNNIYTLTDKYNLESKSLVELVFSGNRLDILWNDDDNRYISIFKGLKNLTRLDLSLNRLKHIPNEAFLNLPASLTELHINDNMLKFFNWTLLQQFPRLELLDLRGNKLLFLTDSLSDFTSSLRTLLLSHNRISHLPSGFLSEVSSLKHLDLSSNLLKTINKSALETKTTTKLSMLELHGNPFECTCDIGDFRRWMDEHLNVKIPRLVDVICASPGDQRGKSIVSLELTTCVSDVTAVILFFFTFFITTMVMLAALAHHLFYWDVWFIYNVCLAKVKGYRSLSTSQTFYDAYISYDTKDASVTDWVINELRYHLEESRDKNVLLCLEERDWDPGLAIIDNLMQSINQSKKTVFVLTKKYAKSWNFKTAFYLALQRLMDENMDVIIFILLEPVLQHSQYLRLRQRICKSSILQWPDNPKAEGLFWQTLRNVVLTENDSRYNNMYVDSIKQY
Procedure, shortened: as §1

human TLR7 = biological target: T3, human TLR7 (Homo sapiens, UniProt Q9NYK1); assay: TLR7 inhibition reporter assay (HEK-Blue cells, SEAP reporter, gardiquimod stimulation); details: HEK-Blue cells overexpressing human TLR7, SEAP reporter, gardiquimod 7.5 μM
T3 construct: host or cells: HEK-Blue cells (HEK293-derived reporter line)
T3 sequence (Q9NYK1 27-1049): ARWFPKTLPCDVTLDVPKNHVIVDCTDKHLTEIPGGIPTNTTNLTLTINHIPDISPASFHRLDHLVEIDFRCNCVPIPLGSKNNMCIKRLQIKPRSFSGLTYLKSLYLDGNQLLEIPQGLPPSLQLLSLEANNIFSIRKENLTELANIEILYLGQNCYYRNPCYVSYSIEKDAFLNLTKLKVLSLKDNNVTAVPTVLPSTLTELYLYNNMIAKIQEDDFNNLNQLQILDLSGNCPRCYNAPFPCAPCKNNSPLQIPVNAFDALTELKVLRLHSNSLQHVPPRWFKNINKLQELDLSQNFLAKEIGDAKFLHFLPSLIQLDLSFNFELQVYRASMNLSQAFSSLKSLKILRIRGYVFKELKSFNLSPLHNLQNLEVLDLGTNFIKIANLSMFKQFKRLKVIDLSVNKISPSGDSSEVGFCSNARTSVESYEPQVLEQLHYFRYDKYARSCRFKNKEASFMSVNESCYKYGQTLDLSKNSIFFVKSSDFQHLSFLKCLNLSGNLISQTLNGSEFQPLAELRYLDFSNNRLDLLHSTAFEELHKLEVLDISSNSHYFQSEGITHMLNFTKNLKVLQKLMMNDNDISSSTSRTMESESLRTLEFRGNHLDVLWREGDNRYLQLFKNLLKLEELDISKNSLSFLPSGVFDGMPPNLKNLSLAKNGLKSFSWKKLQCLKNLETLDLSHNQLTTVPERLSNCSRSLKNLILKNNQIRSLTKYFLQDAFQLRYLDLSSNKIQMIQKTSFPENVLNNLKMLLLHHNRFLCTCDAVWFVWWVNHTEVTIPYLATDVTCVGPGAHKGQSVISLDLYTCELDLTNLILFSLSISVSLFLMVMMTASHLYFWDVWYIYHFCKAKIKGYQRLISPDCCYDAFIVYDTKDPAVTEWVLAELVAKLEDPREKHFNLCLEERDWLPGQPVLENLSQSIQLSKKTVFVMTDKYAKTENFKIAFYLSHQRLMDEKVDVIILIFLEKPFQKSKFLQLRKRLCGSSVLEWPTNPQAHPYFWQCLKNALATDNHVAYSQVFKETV
Procedure, shortened: as §1

Row | SMILES | IC50 (human TLR9) | IC50 (human TLR8) | IC50 (human TLR7)
1 | CC(C)c1c(-c2ccc3nccn3c2)[nH]c2ccc(C3CCN(C4CCN(C(C)C)CC4)CC3)cc12 [Example 803, 6-(3-isopropyl-5-(1′-isopropyl-[1,4′-bipiperidin]-4-yl)-1H-indol-2-yl)imidazo[1,2-a]pyridine] | 100 to 1000 nM | < 100 nM | < 100 nM
2 | CC(C)c1c(-c2c[nH]c3ncncc23)[nH]c2ccc(C3CCNCC3)cc12 [Example 13, 5-(3-isopropyl-5-(piperidin-4-yl)-1H-indol-2-yl)-7H-pyrrolo[2,3-d]pyrimidine] | 100 to 1000 nM | < 100 nM | < 100 nM
3 | CC(C)c1c(-c2ccc3[nH]ncc3c2)[nH]c2ccc(C3CCNCC3)cc12 [Example 169, 5-(3-isopropyl-5-(piperidin-4-yl)-1H-indol-2-yl)-1H-indazole] | 1000 to 50000 nM | 1000 to 50000 nM | 100 to 1000 nM
4 | CC(C)c1c(-c2ccnc3[nH]ncc23)[nH]c2ccc(C3CCN(C(=O)CN4CCN(c5ccncc5)CC4)CC3)cc12 [Example 591, 1-(4-(3-isopropyl-2-(1H-pyrazolo[3,4-b]pyridin-4-yl)-1H-indol-5-yl)piperidin-1-yl)-2-(4-(pyridin-4-yl)piperazin-1-yl)ethan-1-one] | 100 to 1000 nM | < 100 nM | < 100 nM
5 | COc1cc(-c2[nH]c3ccc(C4CCN(C(=O)CN(C)C)CC4)cc3c2C(C)C)cn2ccnc12 [Example 558, 2-(dimethylamino)-1-(4-(3-isopropyl-2-(8-methoxyimidazo[1,2-a]pyridin-6-yl)-1H-indol-5-yl)piperidin-1-yl) ethan-1-one] | 100 to 1000 nM | < 100 nM | < 100 nM
6 | CC(C)c1c(-c2ccnc3[nH]ncc23)[nH]c2cc(F)c(C3CCN(CC4CCNC4)CC3)cc12 (stereo not drawn) [Example 853, 4-(6-fluoro-3-isopropyl-5-(1-(pyrrolidin-3-ylmethyl)piperidin-4-yl)-1H-indol-2-yl)-1H-pyrazolo[3,4-b]pyridine] | < 100 nM | < 100 nM | < 100 nM
7 | CCc1c(-c2ccnc3[nH]ccc23)[nH]c2ccc(C3CCN(C4CCN(C)CC4)CC3)cc12 [Example 839, 4-(3-ethyl-5-(1′-methyl-[1,4′-bipiperidin]-4-yl)-1H-indol-2-yl)-1H-pyrrolo[2,3-b]pyridine] | < 100 nM | < 100 nM | < 100 nM
8 | COc1cc(-c2[nH]c3ccc(C4CCN(C5COC5)CC4)cc3c2C(C)C)cn2ccnc12 [Example 722, 6-(3-isopropyl-5-(1-(oxetan-3-yl)piperidin-4-yl)-1H-indol-2-yl)-8-methoxyimidazo[1,2-a]pyridine] | 1000 to 50000 nM | < 100 nM | < 100 nM

Second part, the compound after the results:

Row | IC50 (human TLR9) | IC50 (human TLR8) | IC50 (human TLR7) | SMILES
9 | 100 to 1000 nM | 100 to 1000 nM | 100 to 1000 nM | COc1cc(-c2[nH]c3ccc(C4CCN(C(=O)CN(C)C)CC4)cc3c2C(C)C)cc2nccn12 [Example 501, 2-(dimethylamino)-1-(4-(3-isopropyl-2-(5-methoxyimidazo[1,2-a]pyridin-7-yl)-1H-indol-5-yl)piperidin-1-yl)ethan-1-one]
10 | 1000 to 50000 nM | 100 to 1000 nM | < 100 nM | Cc1cc(-c2[nH]c3ccc(C4CCNCC4)cc3c2C(C)C)cc2c1oc(=O)n2C [Example 90, 5-(3-isopropyl-5-(piperidin-4-yl)-1H-indol-2-yl)-3,7-dimethylbenzo[d]oxazol-2(3H)-one]
11 | 1000 to 50000 nM | < 100 nM | < 100 nM | CC(C)c1c(-c2ccc3ncoc3c2)[nH]c2ccc(C3CCN(CC(=O)N(C)C)CC3)cc12 [Example 288, 2-(4-(2-(benzo[d]oxazol-6-yl)-3-isopropyl-1H-indol-5-yl)piperidin-1-yl)-N,N-dimethylacetamide]
12 | 1000 to 50000 nM | 100 to 1000 nM | 1000 to 50000 nM | Cc1cc(-c2[nH]c3ccc(C4CCN(CCS(C)(=O)=O)CC4)cc3c2C(C)C)cn2nncc12 [Example 785, 6-(3-isopropyl-5-(1-(2-(methylsulfonyl)ethyl)piperidin-4-yl)-1H-indol-2-yl)-4-methyl-[1,2,3]triazolo[1,5-a]pyridine]
13 | 1000 to 50000 nM | < 100 nM | < 100 nM | Cc1cc(-c2[nH]c3ccc(C4CCN(CCS(C)(=O)=O)CC4)cc3c2C(C)C)cc2cnnn12 [Example 795, 5-(3-isopropyl-5-(1-(2-(methylsulfonyl)ethyl)piperidin-4-yl)-1H-indol-2-yl)-7-methyl-[1,2,3]triazolo[1,5-a]pyridine]
14 | 100 to 1000 nM | < 100 nM | < 100 nM | CNCC(=O)N1CCC(c2ccc3[nH]c(-c4cc(OC)n5ncnc5c4)c(C(C)C)c3c2)CC1 [Example 553, 1-(4-(3-isopropyl-2-(5-methoxy-[1,2,4]triazolo[1,5-a]pyridin-7-yl)-1H-indol-5-yl)piperidin-1-yl)-2-(methylamino)ethan-1-one]
